Laboratory results reported in US20230024842A1, “MUPS TABLET COMPRISING RIBOFLAVIN” (DSM IP Assets B.V., priority 2019, published 2023).

Assay: Absorption of the water solution after 15 min (coloration / riboflavin release from coated particles)
Assay type: physicochemical
Conditions: amount containing 10 mg riboflavin dissolved in 1000 ml water for 15 min; measured at 545 nm, spectrophotometer (Genesys 20)
Protocol: 20 mg of coated powder (containing 10 mg of Riboflavin) was dissolved in 1000 ml water for 15 min. Absorption of the solution was measured at 545 nm using a spectrophotometer (Genesys 20, thermo Scientific). Absorption of the solution was 0.065.
10 mg of riboflavin powder was dissolved in 1000 ml water for 15 min. Absorption of the solution was measured at 545 nm using a spectrophotometer (Genesys 20, thermo Scientific). Absorption of the solution was 0.386.
16.6 mg of coated powder (containing 10 mg of Riboflavin) was dissolved in 1000 ml water for 15 min. Absorption of the solution was measured at 545 nm using a spectrophotometer (Genesys 20, thermo Scientific). Absorption of the solution was 0.087.

- Absorption of the solution: 0.386
Structure (SMILES): Cc1cc2nc3c(=O)[nH]c(=O)nc-3n(C[C@H](O)[C@H](O)[C@H](O)CO)c2cc1C [Comparison Example 2, riboflavin]
